SMILES strings stand for the structures.

The target of this data set is T1, rCYP2B6 (Homo sapiens, UniProt P20813).
T1 construct: purchased Cypex, Ltd; host or cells: Escherichia coli
T1 sequence (P20813 1-491): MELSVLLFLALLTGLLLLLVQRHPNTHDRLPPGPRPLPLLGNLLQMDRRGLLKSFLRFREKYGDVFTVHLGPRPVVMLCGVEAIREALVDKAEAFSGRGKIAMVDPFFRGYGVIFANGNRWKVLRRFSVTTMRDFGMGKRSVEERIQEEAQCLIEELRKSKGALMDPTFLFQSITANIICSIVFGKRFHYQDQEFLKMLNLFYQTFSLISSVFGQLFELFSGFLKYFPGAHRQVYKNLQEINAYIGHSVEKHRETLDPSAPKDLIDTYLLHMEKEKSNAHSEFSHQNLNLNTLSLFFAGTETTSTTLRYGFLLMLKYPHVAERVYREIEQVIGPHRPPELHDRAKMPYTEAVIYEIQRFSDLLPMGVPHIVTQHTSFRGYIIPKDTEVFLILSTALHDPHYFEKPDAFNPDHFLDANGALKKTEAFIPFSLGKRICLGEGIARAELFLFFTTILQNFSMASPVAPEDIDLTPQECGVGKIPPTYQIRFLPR
Put plainly: Reaction phenotyping with rCYP2B6. It counts as in vitro ADME. The procedure:
For FFA and nFFA reaction phenotyping experiments, LC‐MS/MS experiments were performed using an API 4000 QTRAP or QTRAP 5500 mass spectrometer (SCIEX) with positive electrospray ionization. Chromatography was performed using an Atlantis dC18 analytical column (100 × 2.1 mm, 5 µm; Waters Corporation). Mobile phases were 0.2% v/v formic acid in water and 0.2% v/v formic acid in methanol. FFA and nFFA were eluted at a flow rate of 0.5 mL/min with a linear gradient of 40%−95% methanol from 0.20−2.1 min. The mass transitions monitored were 232.0>109.0 for FFA, 204.0>159.0 for nFFA, 348.0>330.0 for 1’‐hydroxymidazolam‐d4 internal standard (FFA reaction phenotyping), and 262.0>244.0 for hydroxybupropion‐d6 internal standard (nFFA reaction phenotyping). Analyst Instrument Control and Data Processing software (v. 1.6.1) was used for collecting and integrating data (SCIEX). Calibration curves ranging from 1.25 µM−0.01 µM were used to quantify nFFA. Relative quantitation was used to approximate the amount of FFA test material used.
Methods used to evaluate the role of CYP450s in the metabolism of FFA have been described.[22], [23], [24] […] Supernatant fractions were analyzed by LC‐MS/MS.

Compound `CCNC(C)Cc1cccc(C(F)(F)F)c1` (racemic) [FFA, (RS)‐ethyl (α‐methyl‐3‐trifluoromethylphenethyl)amine] gave an FFA disappearance (1 µM FFA, rCYP2B6) of 10%. Under “10 μM FFA, rCYP2B6, 60 min”, the FFA loss was found to be 21%.

The values are drawn from PMC9124820, “In vitro evaluation of fenfluramine and norfenfluramine as victims of drug interactions” (Pharmacology Research & Perspectives, 2022).
